Results from patent US5405859A (priority 1993, dated 1995).
≈ marks a conversion by molar mass, not a printed value. Read-outs that look alike come from different tables or passages of the source.

Legend:
[1] = tested on: OVCAR-4 cells; assay: Cancer cell screen (NCI protocol), OVCAR-4; conditions: Homo sapiens, OVCAR-4, read-out: LOGIC50(W)
[2] = tested on: P388 cells; assay: Cancer cell screen (NCI protocol), P388; conditions: Mus musculus, P388, read-out: LOGIC50(W)
[3] = tested on: HSV-2; assay: Antiviral testing, HSV-2; assay type: cell-based, herpes virus HSV-2; conditions: for HSV-2 (antiviral concentration): Vero host cells, kind of endpoint not given; for activity against herpes virus HSV-2: at concentrations not toxic for host cells (Vero)
Text: (§1) Substantially pure compounds of Patellazole B and C were screened for activity. These extracts from a marine tunicate (L. patella) were submitted for antiviral testing.

[4] = tested on: VERO; assay: Cytotoxicity in Vero host cells; assay type: cell-based; conditions: for Cytotoxicity Vero: Vero cells, kind of endpoint not given; for toxicity for the host cells: Vero, at concentrations active against HSV-1 and HSV-2
Text: as §1

[5] = tested on: SNB-75 cells; assay: Cancer cell screen (NCI protocol), SNB-75; conditions: Homo sapiens, SNB-75, read-out: LOGIC50(W)
[6] = tested on: A2780 cells; assay: Cancer cell screen (NCI protocol), A2780; conditions: Homo sapiens, A2780, read-out: LOGIC50(W)
[7] = tested on: TE-671 cells; assay: Cancer cell screen (NCI protocol), TE-671; conditions: Homo sapiens, TE-671, read-out: LOGIC50(W)
[8] = tested on: H460 cells; assay: Cancer cell screen (NCI protocol), H460; conditions: Homo sapiens, NCI-H460, read-out: LOGIC50(W)
[9] = tested on: LOVO cells; assay: Cancer cell screen (NCI protocol), LOVO; conditions: Homo sapiens, read-out: LOGIC50(W)
[10] = tested on: MCF-7/A cells; assay: Cancer cell screen (NCI protocol), MCF-7/A; conditions: MCF7a, read-out: LOGIC50(W)
[11] = tested on: OVCAR-5 cells; assay: Cancer cell screen (NCI protocol), OVCAR-5; conditions: Homo sapiens, OVCAR-5, read-out: LOGIC50(W)
[12] = tested on: SK-MEL5 cells; assay: Cancer cell screen (NCI protocol), SK-MEL5; conditions: Homo sapiens, SK-MEL-5, read-out: LOGIC50(W)
[13] = tested on: SN-12KI cells; assay: Cancer cell screen (NCI protocol), SN-12KI; conditions: read-out: LOGIC50(W)
[14] = tested on: U-251 cells; assay: Cancer cell screen (NCI protocol), U-251; conditions: Homo sapiens, U-251, read-out: LOGIC50(W)
[15] = tested on: A498 cells; assay: Cancer cell screen (NCI protocol), A498; conditions: Homo sapiens, A498, read-out: LOGIC50(W)
[16] = tested on: SNB-19 cells; assay: Cancer cell screen (NCI protocol), SNB-19; conditions: Homo sapiens, SNB-19, read-out: LOGIC50(W)
[17] = tested on: standard group of cancer cells; assay: Screen against standard group of cancer cells, whole panel; conditions: for .DELTA / .RANGE: log IC50, cell panel; for IC50: read-out: .AV.LOG IC50; for relative activity: review of Tables IV-VI
[18] = tested on: A704 cells; assay: Cancer cell screen (NCI protocol), A704; conditions: Homo sapiens, A704, read-out: LOGIC50(W)
[19] = tested on: MOLT-4 cells; assay: Cancer cell screen (NCI protocol), MOLT-4; conditions: Homo sapiens, MOLT-4, read-out: LOGIC50(W)
[20] = tested on: HT29 cells; assay: Cancer cell screen (NCI protocol), HT29; conditions: Homo sapiens, HT-29, read-out: LOGIC50(W)
[21] = tested on: A322 cells; assay: Cancer cell screen (NCI protocol), A322; conditions: read-out: LOGIC50(W)
[22] = tested on: SK-MES1 cells; assay: Cancer cell screen (NCI protocol), SK-MES1; conditions: Homo sapiens, SK-MES-1, read-out: LOGIC50(W)
[23] = Initial screening, relative activities of the patellazoles
[24] = tested on: OVCAR-8 cells; assay: Cancer cell screen (NCI protocol), OVCAR-8; conditions: Homo sapiens, OVCAR-8, read-out: LOGIC50(W)
[25] = tested on: HSV-1; assay: Antiviral testing, HSV-1; assay type: cell-based, herpes virus HSV-1; conditions: for HSV-L (antiviral concentration): Vero host cells, kind of endpoint not given; for activity against herpes virus HSV-1: at concentrations not toxic for host cells (Vero)
Text: as §1

[26] = tested on: EKV-X cells; assay: Cancer cell screen (NCI protocol), EKV-X; conditions: Homo sapiens, EKVX, read-out: LOGIC50(W)
[27] = tested on: SNB-44 cells; assay: Cancer cell screen (NCI protocol), SNB-44; conditions: SNB44, read-out: LOGIC50(W)
[28] = tested on: MCF-7 cells; assay: Cancer cell screen (NCI protocol), MCF-7; conditions: Homo sapiens, MCF7, read-out: LOGIC50(W)
[29] = tested on: LOX cells; assay: Cancer cell screen (NCI protocol), LOX; conditions: read-out: LOGIC50(W)
[30] = tested on: UO-31 cells; assay: Cancer cell screen (NCI protocol), UO-31; conditions: Homo sapiens, UO-31, read-out: LOGIC50(W)
[31] = tested on: A549 cells; assay: Cancer cell screen (NCI protocol), A549; conditions: Homo sapiens, A549, read-out: LOGIC50(W)
[32] = tested on: P388/AD cells; assay: Cancer cell screen (NCI protocol), P388/AD; conditions: Mus musculus, P388, read-out: LOGIC50(W)
[33] = tested on: SW620 cells; assay: Cancer cell screen (NCI protocol), SW620; conditions: Homo sapiens, SW-620, read-out: LOGIC50(W)
[34] = tested on: H322 cells; assay: Cancer cell screen (NCI protocol), H322; conditions: NCI-H322, read-out: LOGIC50(W)
[35] = tested on: HL-60 cells; assay: Cancer cell screen (NCI protocol), HL-60; conditions: Homo sapiens, HL-60, read-out: LOGIC50(W)
[36] = tested on: H520 cells; assay: Cancer cell screen (NCI protocol), H520; conditions: Homo sapiens, NCI-H520, read-out: LOGIC50(W)
[37] = Patellazole B versus Patellazole C

Compound	IC50 [1] [ng/mL]	IC50 [2] [ng/mL]	IC50 [5] [ng/mL]	IC50 [6] [ng/mL]	IC50 [7] [ng/mL]	IC50 [8] [ng/mL]	IC50 [9] [ng/mL]	IC50 [10] [ng/mL]	IC50 [11] [ng/mL]	IC50 [12] [ng/mL]	IC50 [13] [ng/mL]	IC50 [14] [ng/mL]	IC50 [15] [ng/mL]	IC50 [16] [ng/mL]	.DELTA [17]	.RANGE [17]	IC50 [17] [ng/mL]	IC50 [18] [ng/mL]	IC50 [19] [ng/mL]	IC50 [20] [ng/mL]	also measured
COC1/C(C)=C/C=C/C(C)C(C(C)(O)/C=C(/C)Cc2csc(C3(C)OC3C)n2)OC(=O)C(C)(OC(=O)C(C)C(C)O)CCC(C)CC(O)C(C)C(=O)C(CO)/C=C\CC(C)C(O)C1O (centres unmarked) [Patellazole C]	7.94 (≈ 8.63 nM)	12.6 (≈ 13.7 nM)	> 31.6	5.01 (≈ 5.45 nM)	7.94 (≈ 8.63 nM)	7.94 (≈ 8.63 nM)	6.31 (≈ 6.86 nM)	> 316	2.51 (≈ 2.73 nM)	12.6 (≈ 13.7 nM)	10 (≈ 10.9 nM)	7.94 (≈ 8.63 nM)	10 (≈ 10.9 nM)	10 (≈ 10.9 nM)	1.1	2.5	10.2 (≈ 11.1 nM)	79.4 (≈ 86.3 nM)	7.94 (≈ 8.63 nM)	1 (≈ 1.09 nM)	HSV-2 (antiviral concentration) [3]: 0.80 µg/mL; activity against herpes virus HSV-2 [3]: showed activity; Cytotoxicity Vero [4]: 4.0 µg/mL; toxicity for the host cells [4]: not toxic; IC50 [21]: 7.94 ng/mL (≈ 8.63 nM); IC50 [22]: 7.94 ng/mL (≈ 8.63 nM); relative activities of the patellazoles [23]: generally less active; relative activities of the patellazoles ([23]; listed as C): A>B>C; IC50 [24]: 10 ng/mL (≈ 10.9 nM); HSV-L (antiviral concentration) [25]: 0.30 µg/mL; activity against herpes virus HSV-1 [25]: showed activity; IC50 [26]: 10 ng/mL (≈ 10.9 nM)
COC1/C(C)=C/C=C/C(C)C(C(C)(O)/C=C(/C)Cc2csc(C3(C)OC3C)n2)OC(=O)C(C)(OC(=O)C(C)C(C)O)CCC(C)CC(O)C(C)C(=O)C(C)/C=C\CC(C)C(O)C1O (centres unmarked) [Patellazole B]	< 0.0316	< 0.0316	< 0.0316	< 0.0316	< 0.0316	< 0.0316	< 0.0316	< 0.0316	< 0.0316	< 0.0316	< 0.0316	< 0.0316	< 0.0316	< 0.0316	0	0	0.0316 (≈ 0.035 nM)	< 0.0316	< 0.0316	< 0.0316	relative antiviral activity against HSV-2 [3, 37]: significantly more potent; HSV-2 (antiviral concentration) [3]: 0.06 µg/mL; activity against herpes virus HSV-2 [3]: showed activity; Cytotoxicity Vero [4]: 0.75 µg/mL; toxicity for the host cells [4]: not toxic; IC50 [27]: < 0.0316 ng/mL; IC50 [28]: < 0.0316 ng/mL; IC50 [29]: < 0.0316 ng/mL; IC50 [30]: < 0.0316 ng/mL; relative activity [17]: significantly more active than Patellazole C; IC50 [31]: < 0.0316 ng/mL; IC50 [32]: < 0.0316 ng/mL; IC50 [22]: < 0.0316 ng/mL; relative activities of the patellazoles [23]: A>B>C; IC50 [33]: < 0.0316 ng/mL; IC50 [34]: < 0.0316 ng/mL; relative antiviral activity against HSV-1 [25, 37]: significantly more potent; HSV-L (antiviral concentration) [25]: 0.0005 µg/mL; activity against herpes virus HSV-1 [25]: showed activity; IC50 [26]: < 0.0316 ng/mL
CCC(C)C(=O)OC1(C)CCC(C)CC(O)C(C)C(=O)C(C)/C=C\CC(C)C(O)C(O)C(OC)/C(C)=C/C=C/C(C)C(C(C)(O)/C=C(/C)Cc2csc(C3(C)OC3C)n2)OC1=O (centres unmarked) [Patellazole A]	0.1 (≈ 0.113 nM)	0.1 (≈ 0.113 nM)	6.31 (≈ 7.1 nM)	0.0398 (≈ 0.0448 nM)	< 0.0316	0.0398 (≈ 0.0448 nM)	0.0794 (≈ 0.0894 nM)	0.501 (≈ 0.564 nM)	0.0501 (≈ 0.0564 nM)	0.158 (≈ 0.178 nM)	< 0.0316	< 0.0316	0.0631 (≈ 0.071 nM)	0.0794 (≈ 0.0894 nM)	0.5	2.3	0.0977 (≈ 0.11 nM)	0.1 (≈ 0.113 nM)	0.0794 (≈ 0.0894 nM)	< 0.0316	IC50 [35]: 0.126 ng/mL (≈ 0.142 nM); IC50 [28]: 0.126 ng/mL (≈ 0.142 nM); IC50 [30]: 0.126 ng/mL (≈ 0.142 nM); IC50 [36]: 0.794 ng/mL (≈ 0.894 nM); relative activity [17]: slightly more active than Patellazole B; IC50 [32]: 0.126 ng/mL (≈ 0.142 nM); IC50 [22]: < 0.0316 ng/mL; relative activities of the patellazoles [23]: A>B>C; IC50 [33]: 0.1 ng/mL (≈ 0.113 nM); IC50 [34]: 0.126 ng/mL (≈ 0.142 nM); IC50 [24]: 0.1 ng/mL (≈ 0.113 nM); IC50 [26]: 0.0794 ng/mL (≈ 0.0894 nM)
